In the experiment the target is T1, Recombinant human mPGES-1 (Homo sapiens, UniProt O14684).
T1 construct: made in house; host or cells: CHO cells (crude microsomal fractions)
T1 sequence (O14684 1-152): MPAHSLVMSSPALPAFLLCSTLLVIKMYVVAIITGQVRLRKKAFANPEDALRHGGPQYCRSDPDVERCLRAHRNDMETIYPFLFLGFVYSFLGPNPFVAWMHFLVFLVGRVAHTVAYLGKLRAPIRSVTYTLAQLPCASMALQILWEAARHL
Nature of the experiment: In-vitro screening of mPGES-1 inhibitors (inhibition of PGE2 formation from PGH2, HTRF detection). The conditions noted are these: mPGES-1 enzyme; for inhibition at 1 µM: 1 μM test compound, read-out: Percentage inhibition at 1 μM; for inhibition at 1 µM / inhibition at 10 µM: crude microsomal fractions; for inhibition at 10 µM: 10 μM test compound, read-out: Percentage inhibition at 10 μM; for IC50: class symbols. The format is biochemical. From the text: In-Vitro Protocol for Screening of mPGES-1 Inhibitors: mPGES-1 (Microsomal prostaglandin E synthase-1) is a microsomal enzyme that converts endoperoxide substrate PGH2 (prostaglandin H2) to product PGE2 (prostaglandin E2) by isomerization in the presence of reduced glutathione (GSH). mPGES-1 inhibitors were screened by assessing their ability to inhibit formation of PGE2 from PGH2 in the presence of mPGES-1 using an anti-PGE2 antibody based detection method. Recombinant human mPGES-1 was generated in-house by expression in CHO cells (Ouellet M et al. (2002), Protein Expression and Purification 26: 489-495). The assay was set up using crude microsomal fractions at a protein concentration of 40-60 μg/mL. Test compounds were prepared in 100% dimethyl sulfoxide (DMSO) to obtain 20 mM stock solution and then diluted using assay buffer comprising 0.1 M Potassium phosphate buffer with 2 mM EDTA. The final concentration of DMSO in the reaction was 0.5% (v/v). Negative controls were comprised of all assay reagents except the enzyme. Positive controls were comprised of the enzyme reaction in the absence of any inhibitor. Test compounds were incubated for 10 minutes in assay buffer containing 2.5 mM GSH and mPGES-1 enzyme followed by addition of PGH2 at a concentration of 15 μM for 1 minute. The reaction was stopped by addition of Stannous chloride (11 mg/ml) and PGE2 levels were measured ([…] et al. (2005), Journal of Biomolecular Screening 10(6) 599-605; Goedken R E et al. (2008), Journal of Biomolecular Screening 13 (7): 619-625) by HTRF kit (CisBio)). Inhibition of mPGES-1 enzyme activity was measured using the percent of reaction occurring in the positive control. Concentration response curves were plotted using percent inhibition of maximum enzyme reaction. The IC50 value was calculated from the concentration response curve by nonlinear regression analysis using GraphPad PRISM software.

The values below come from patent publication US10821100B2, “Triazolone compounds as mPGES-1 inhibitors” (Glenmark Pharmaceuticals S.A., priority 2012, dated 2020).

As for `COc1cc(-n2nc(-c3c(F)cccc3Cl)[nH]c2=O)ccc1C(=O)Nc1ccc(F)c(C(F)(F)F)c1` [Example-33, 4-(3-(2-Chloro-6-fluorophenyl)-5-oxo-4,5-dihydro-1H-1,2,4-triazol-1-yl)-N-(4-fluoro-3-(trifluoromethyl)phenyl)-2-methoxybenzamide], the inhibition at 1 µM was 89.4%, the inhibition at 10 µM came to 96.8% and the IC50 was under 50 nM.

As for `O=C(Nc1cc(C(F)(F)F)ccc1F)c1ccc(-n2nc(-c3c(F)cccc3Cl)[nH]c2=O)cc1` [Example-34, 4-(3-(2-Chloro-6-fluorophenyl)-5-oxo-4,5-dihydro-1H-1,2,4-triazol-1-yl)-N-(2-fluoro-5-(trifluoromethyl)phenyl)benzamide], the inhibition at 1 µM is 70.7% and the inhibition at 10 µM came out at 92.3%.

With `Cc1ccc(NC(=O)c2ccc(-n3nc(-c4c(F)cccc4Cl)[nH]c3=O)cc2)c(F)c1` [Example-35, 4-(3-(2-Chloro-6-fluorophenyl)-5-oxo-4,5-dihydro-1H-1,2,4-triazol-1-yl)-N-(2-fluoro-4-methylphenyl)benzamide], the inhibition at 1 µM turned out to be 37.4% and the inhibition at 10 µM turned out to be 59.1%.

Consider `COc1cc(-n2nc(-c3c(F)cccc3Cl)[nH]c2=O)ccc1C(=O)Nc1cc(C(F)(F)F)ccc1F` [Example-36, 4-(3-(2-Chloro-6-fluorophenyl)-5-oxo-4,5-dihydro-1H-1,2,4-triazol-1-yl)-N-(2-fluoro-5-(trifluoromethyl)phenyl)-2-methoxybenzamide], for which the inhibition at 1 µM turned out to be 97.3%, the inhibition at 10 µM turned out to be 98.9% and the IC50 was under 50 nM.

Regarding `Cc1ccc(Cl)cc1NC(=O)c1ccc(-n2nc(-c3c(F)cccc3Cl)[nH]c2=O)cc1` [Example-37, N-(5-Chloro-2-methylphenyl)-4-(3-(2-chloro-6-fluorophenyl)-5-oxo-4,5-dihydro-1H-1,2,4-triazol-1-yl)benzamide], the inhibition at 1 µM stood at 51% and the inhibition at 10 µM was found to be 94.3%.

With `COc1cc(-n2nc(-c3c(F)cccc3Cl)[nH]c2=O)ccc1C(=O)Nc1cc(Cl)ccc1C` [Example-38, N-(5-Chloro-2-methylphenyl)-4-(3-(2-chloro-6-fluorophenyl)-5-oxo-4,5-dihydro-1H-1,2,4-triazol-1-yl)-2-methoxybenzamide], the inhibition at 1 µM came to 87.4%, the inhibition at 10 µM stood at 84.9% and the IC50 was in the range of 50 to 100 nM.

For `COc1cc(-n2nc(-c3c(F)cccc3Cl)[nH]c2=O)ccc1C(=O)Nc1ccc(C)cc1F` [Example-39, 4-(3-(2-Chloro-6-fluorophenyl)-5-oxo-4,5-dihydro-1H-1,2,4-triazol-1-yl)-N-(2-fluoro-4-methylphenyl)-2-methoxybenzamide], the inhibition at 1 µM is 90.1%, the inhibition at 10 µM amounted to 96.4% and the IC50 lay within 50 to 100 nM.

As to `COc1cc(-n2nc(-c3c(F)cccc3Cl)[nH]c2=O)ccc1-c1nc(-c2ccc(Cl)cc2)no1` [Example-40, 3-(2-Chloro-6-fluorophenyl)-1-(4-(3-(4-chlorophenyl)-1,2,4-oxadiazol-5-yl)-3-methoxyphenyl)-1H-1,2,4-triazol-5(4H)-one], the inhibition at 1 µM was found to be 89%, the inhibition at 10 µM was found to be 90.7% and the concentration for half-maximal inhibition (IC50) was under 50 nM.

Consider `COc1cc(OC)cc(-c2noc(-c3ccc(-n4nc(-c5c(F)cccc5Cl)[nH]c4=O)cc3OC)n2)c1` [Example-41, 3-(2-Chloro-6-fluorophenyl)-1-(4-(3-(3,5-dimethoxyphenyl)-1,2,4-oxadiazol-5-yl)-3-methoxyphenyl)-1H-1,2,4-triazol-5(4H)-one], for which the inhibition at 1 µM is 58.8% and the inhibition at 10 µM was found to be 87.1%.

As for `COc1cc(-n2nc(-c3c(Cl)cccc3Cl)[nH]c2=O)ccc1C(=O)Nc1cccc(C(F)(F)F)c1` [Example-42, 4-(3-(2,6-Dichlorophenyl)-5-oxo-4,5-dihydro-1H-1,2,4-triazol-1-yl)-2-methoxy-N-(3-(trifluoromethyl)phenyl)benzamide], the inhibition at 1 µM was 96.5%, the inhibition at 10 µM was 99.7% and the IC50 was under 50 nM.

Consider `COc1cc(-n2nc(-c3c(Cl)cccc3Cl)[nH]c2=O)ccc1C(=O)Nc1ccc(F)c(C(F)(F)F)c1` [Example-43, 4-(3-(2,6-Dichlorophenyl)-5-oxo-4,5-dihydro-1H-1,2,4-triazol-1-yl)-N-(4-fluoro-3-(trifluoromethyl)phenyl)-2-methoxybenzamide], for which the inhibition at 1 µM is 98.6%, the inhibition at 10 µM amounted to 99% and the IC50 was under 50 nM.

`COc1cc(-n2nc(-c3c(Cl)cccc3Cl)[nH]c2=O)ccc1C(=O)Nc1cc(C(F)(F)F)ccc1F` [Example-44, 4-(3-(2,6-Dichlorophenyl)-5-oxo-4,5-dihydro-1H-1,2,4-triazol-1-yl)-N-(2-fluoro-5-(trifluoromethyl)phenyl)-2-methoxybenzamide]: the inhibition at 1 µM is 97.4%, the inhibition at 10 µM worked out at 99% and the concentration for half-maximal inhibition (IC50) was under 50 nM.

Turning to `COc1cc(-n2nc(-c3c(F)cccc3Cl)[nH]c2=O)ccc1C(=O)Nc1nc2ccc(F)cc2s1` [Example-45, 4-(3-(2-Chloro-6-fluorophenyl)-5-oxo-4,5-dihydro-1H-1,2,4-triazol-1-yl)-N-(6-fluorobenzo[d]thiazol-2-yl)-2-methoxybenzamide], the inhibition at 1 µM turned out to be 81.7%, the inhibition at 10 µM amounted to 90.1% and the IC50 is under 50 nM.

For the compound `COc1cc(-n2nc(-c3c(F)cccc3Cl)[nH]c2=O)ccc1C(=O)Nc1nc2ccccc2[nH]1` [Example-46, N-(1H-Benzo[d]imidazol-2-yl)-4-(3-(2-chloro-6-fluorophenyl)-5-oxo-4,5-dihydro-1H-1,2,4-triazol-1-yl)-2-methoxybenzamide], the inhibition at 1 µM worked out at 59.8% and the inhibition at 10 µM is 72.1%.

In the case of `COc1cc(-n2nc(-c3c(F)cccc3Cl)[nH]c2=O)ccc1-c1nc(-c2cc(F)cc(C(F)(F)F)c2)no1` [Example-47, 3-(2-Chloro-6-fluorophenyl)-1-(4-(3-(3-fluoro-5-(trifluoromethyl)phenyl)-1,2,4-oxadiazol-5-yl)-3-methoxyphenyl)-1H-1,2,4-triazol-5(4H)-one], the inhibition at 1 µM came to 89.5%, the inhibition at 10 µM turned out to be 96.5% and the IC50 was under 50 nM.

Regarding `COc1cc(-n2nc(-c3c(F)cccc3Cl)[nH]c2=O)ccc1C(=O)Nc1nnc(C(F)(F)F)s1` [Example-48, 4-(3-(2-Chloro-6-fluorophenyl)-5-oxo-4,5-dihydro-1H-1,2,4-triazol-1-yl)-2-methoxy-N-(5-(trifluoromethyl)-1,3,4-thiadiazol-2-yl)benzamide], the inhibition at 1 µM is 98.3%, the inhibition at 10 µM stood at 100% and the IC50 was under 50 nM.

Regarding `COc1cc(-n2nc(-c3c(Cl)cccc3Cl)[nH]c2=O)ccc1-c1nc(-c2ccc(Cl)cc2)no1` [Example-49, 1-(4-(3-(4-Chlorophenyl)-1,2,4-oxadiazol-5-yl)-3-methoxyphenyl)-3-(2,6-dichlorophenyl)-1H-1,2,4-triazol-5(4H)-one], the inhibition at 1 µM stood at 89.2%, the inhibition at 10 µM stood at 96.3% and the half-inhibitory concentration (IC50) was under 50 nM.

Consider `COc1cc(-n2nc(-c3c(Cl)cccc3Cl)[nH]c2=O)ccc1-c1nc(C(C)C)no1` [Example-50, 3-(2,6-Dichlorophenyl)-1-(4-(3-isopropyl-1,2,4-oxadiazol-5-yl)-3-methoxyphenyl)-1H-1,2,4-triazol-5(4H)-one], for which the inhibition at 1 µM was determined as 95.3%, the inhibition at 10 µM is 99.8% and the IC50 is 50 to 100 nM.

Regarding `O=c1[nH]c(-c2c(F)cccc2Cl)nn1-c1ccc(-c2nc(-c3ccc(Cl)cc3)no2)cc1` [Example-51, 3-(2-Chloro-6-fluorophenyl)-1-(4-(3-(4-chlorophenyl)-1,2,4-oxadiazol-5-yl)phenyl)-1H-1,2,4-triazol-5(4H)-one], the inhibition at 1 µM amounted to 88.3%, the inhibition at 10 µM turned out to be 86% and the IC50 was under 50 nM.

In the case of `COc1cc(-n2nc(-c3cc(CNC(=O)C4CC4)ccc3Cl)[nH]c2=O)ccc1C(=O)Nc1cccc(C(F)(F)F)c1` [Example-52, 4-(3-(2-Chloro-5-(cyclopropanecarboxamidomethyl)phenyl)-5-oxo-4,5-dihydro-1H-1,2,4-triazol-1-yl)-2-methoxy-N-(3-(trifluoromethyl)phenyl)benzamide], the inhibition at 1 µM turned out to be 96.4%, the inhibition at 10 µM was 98.3% and the IC50 is under 50 nM.
